Molecular target: T1, human vasopressin V1b receptor (Homo sapiens, UniProt P47901)
T1 construct: expressed in transfected cells; host or cells: CHO-K1 (cell line hV1b-3H2_CHO), membranes
T1 sequence (P47901 1-424): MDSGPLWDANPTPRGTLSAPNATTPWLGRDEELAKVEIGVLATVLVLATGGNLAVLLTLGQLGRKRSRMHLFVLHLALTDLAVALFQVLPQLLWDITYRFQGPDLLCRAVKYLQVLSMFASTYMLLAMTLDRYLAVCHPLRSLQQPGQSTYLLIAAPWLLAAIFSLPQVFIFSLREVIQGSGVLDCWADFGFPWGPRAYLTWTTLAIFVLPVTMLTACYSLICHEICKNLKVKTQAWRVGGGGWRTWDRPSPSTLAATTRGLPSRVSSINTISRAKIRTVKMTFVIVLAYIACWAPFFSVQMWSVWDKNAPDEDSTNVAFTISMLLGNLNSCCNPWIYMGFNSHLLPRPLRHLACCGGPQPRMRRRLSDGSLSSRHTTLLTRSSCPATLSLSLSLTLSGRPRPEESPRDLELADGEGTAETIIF
Assay: Vasopressin V1b receptor binding assay (3H-AVP displacement)
Settings: for Ki: membranes from CHO-K1 cells with stably expressed human V1b receptors, 1.5 nM 3H-AVP, read-out: affinity constants (Ki) for the human vasopressin V1b receptor; for selectivity vis-a-vis V1b by comparison with V1a, V2 and/or OT: quotient of Ki values: Ki(V1a)/Ki(V1b), Ki(V2)/Ki(V1b) and/or Ki(OT)/Ki(V1b)
Protocol: The test substances were dissolved in a concentration of 10^−2 M in DMSO and further diluted to 5×10^−4 M to 5×10^−9 M in DMSO. These DMSO solutions were diluted 1:10 with assay buffer. The substance concentration was again diluted 1:5 in the assay mixture.
CHO-K1 cells with stably expressed human vasopressin V1b receptor (clone 3H2) were harvested and homogenized in 50 mM Tris-HCl and in the presence of protease inhibitors (Roche complete Mini #1836170) with a Polytron homogenizer at a medium setting for 2×10 seconds and subsequently centrifuged at 40 000×g for 1 h. The membrane pellet was again homogenized and centrifuged as described and then taken up in 50 mM Tris-HCl, pH 7.4, homogenized and stored in aliquots frozen in liquid nitrogen at −190° C.
The binding assay was carried out by a method based on that of Tahara et al. (Tahara A et al., Brit. J. Pharmacol. 125, 1463-1470 (1998)). The incubation buffer was: 50 mM Tris, 10 mM MgCl2, 0.1% BSA, pH 7.4.
In the assay mixture (250 μl), membranes (50 μg/ml protein in incubation buffer) from CHO-K1 cells with stably expressed human V1b receptors (cell line hV1b—3H2_CHO) were incubated with 1.5 nM ^3H-AVP (8-Arg-vasopressin, PerkinElmer #18479) in incubation buffer (50 mM Tris, 10 mM MgCl2, 0.1% BSA, pH 7.4) (total binding) or additionally with increasing concentrations of test substance (displacement experiment). The nonspecific binding was determined with 1 uM AVP (Bachem # H1780). All determinations were carried out as triplicate determinations. After incubation (60 minutes at room temperature), the free radioligand was removed by vacuum filtration (Skatron cell harvester 7000) through Wathman G F/B glass fiber filter mats, and the filters were transferred into scintillation vials. The liquid scintillation measurement took place in a Tricarb model 2000 or 2200CA instrument (Packard). Conversion of the measured cpm into dpm was carried out with the aid of a standard quench series.
The binding parameters were calculated by nonlinear regression in SAS. The algorithms of the program operate in analogy to the LIGAND analysis program (Munson P J and Rodbard D, Analytical Biochem. 107, 220-239 (1980)). The Kd of ^3H-AVP for the recombinant […] receptors is 0.4 nM and was used to determine the Ki value.

Row | SMILES | Ki [nM] | selectivity vis-a-vis V1b by comparison with V1a, V2 and/or OT
1 | COc1ccc(S(=O)(=O)N2C(=O)C(c3ccccc3OC)(N(C)[C@@H](C)C(=O)N(C)C)c3cc(C#N)ccc32)cc1 (mixture of isomers) [Example 15] | < 100 | improved selectivity
2 | COc1ccc(S(=O)(=O)N2C(=O)C(c3ccccc3OC)(N3CC(O)CC3C(=O)N(C)C)c3cc(C#N)ccc32)c(OC)c1 (single isomer, unassigned) [Example 1] | < 100 | improved selectivity
3 | COc1ccc(S(=O)(=O)N2C(=O)C(c3ccccc3OC)(N3CC(O)CC3C(=O)N(C)C)c3cc(C#N)ccc32)c(OC)c1 (single isomer, unassigned; (+)) [Example 16] | – | improved selectivity
4 | COc1ccc(S(=O)(=O)N2C(=O)C(c3ccccc3OC)(N3CCC[C@H]3C(=O)N(C)C)c3cc(C#N)ccc32)cc1 (single isomer, unassigned; (+)) [Example 17b] | < 100 | improved selectivity
5 | COc1ccc(S(=O)(=O)N2C(=O)C(c3ccccc3OC)(N3C[C@H](O)C[C@H]3C(=O)N(C)C)c3cc(C#N)ccc32)cc1 (stereo partly drawn) [Example 19, (−)-(2S,4R)-1-[5-Cyano-1-(4-methoxybenzenesulfonyl)-3-(2-methoxyphenyl)-2-oxo-2,3-dihydro-1H-indol-3-yl]-4-hydroxypyrrolidine-2-dimethylcarboxamide] | < 100 | improved selectivity
